Results on three compounds are retold here after ChEMBL document CHEMBL4020762, “Protective effect of lanostane triterpenoids from the sclerotia of Poria cocos Wolf against cisplatin-induced apoptosis in LLC-PK1 cells” (2017).

Activity calls are given as the source filed them. The rule behind the calls is not given here. A value given as a limit tells only on which side of the number the result lay.

For assay [1], the species on record is Sus scrofa. As to the kind of experiment: Inhibition of cisplatin-induced increase in phosphorylated ERK levels in pig LLC-PK1 cells at 50 to 100 uM pretreated for 2 hrs followed by cisplatin addition after 24 hrs by radioimmunoprecipitation assay. It counts as cell-based.
For assay [2], the system named is LLC-PK1. Nature of the assay: Renoprotective activity in pig LLC-PK1 cells assessed as inhibition of cisplatin-induced damage by measuring cell viability at 50 to 100 uM preincubated for 2 hrs followed by cisplatin addition after 24 hrs by Ez-Cytox reagent based assay (reference value: 60%). The assay is classed as functional, Sus scrofa.
Assay [3] deals with LLC-PK1. As to the kind of experiment: Renoprotective activity in pig LLC-PK1 cells assessed as inhibition of cisplatin-induced damage by measuring increase in cell viability preincubated for 2 hrs followed by cisplatin addition after 24 hrs by Ez-Cytox reagent based assay. The assay is classed as functional. The conditions noted are these: Sus scrofa.
The species entered for assay [4] is Sus scrofa. As to the kind of experiment: Inhibition of cisplatin-induced increase in phosphorylated p38 MAPK levels in pig LLC-PK1 cells at 50 to 100 uM pretreated for 2 hrs followed by cisplatin addition after 24 hrs by radioimmunoprecipitation assay. It counts as cell-based.
For assay [5], the system named is A2780. As to the kind of experiment: Potentiation of cisplatin-induced cytotoxicity against human A2780 cells up to 100 uM after 24 hrs in presence of cisplatin by Ez-Cytox reagent based assay. It counts as functional, cell-based.
The subject of assay [6] is LLC-PK1. As to the kind of experiment: Renoprotective activity in pig LLC-PK1 cells assessed as inhibition of cisplatin-induced increase in caspase-3 cleavage at 50 to 100 uM preincubated for 2 hrs followed by cisplatin addition after 24 hrs by radioimmunoprecipitation assay. The assay is classed as functional, cell-based. The conditions noted are these: Sus scrofa.
For assay [7], the species on record is Sus scrofa. As to the kind of experiment: Inhibition of cisplatin-induced increase in phosphorylated JNK levels in pig LLC-PK1 cells at 50 to 100 uM pretreated for 2 hrs followed by cisplatin addition after 24 hrs by radioimmunoprecipitation assay. The assay is classed as cell-based.
Assay [8] has as its system LLC-PK1. Nature of the assay: Renoprotective activity in pig LLC-PK1 cells assessed as inhibition of cisplatin-induced apoptosis by measuring apoptotic cells at 50 to 100 uM preincubated for 2 hrs followed by cisplatin addition after 24 hrs by annexin-V Alexa Fluor488/propidium iodide staining based cytometric method (reference value: 26.3%). The assay is classed as functional, Sus scrofa.

Assay [9] relates to A2780. Nature of the assay: Potentiation of cisplatin-induced cytotoxicity against human A2780 cells after 24 hrs in presence of cisplatin by Ez-Cytox reagent based assay. The assay is classed as functional, cell-based.
Assay [10] has as its system LLC-PK1. As to the kind of experiment: Renoprotective activity in pig LLC-PK1 cells assessed as inhibition of cisplatin-induced damage by measuring increase in cell viability at 10 to 100 uM preincubated for 2 hrs followed by cisplatin addition after 24 hrs by Ez-Cytox reagent based assay. The note with it: Sus scrofa. The assay is classed as functional.

In the case of `C=C(CC[C@@H](C(=O)O)[C@H]1CC[C@@]2(C)C3=CC[C@H]4C(C)(C)[C@@H](OC(C)=O)CC[C@]4(C)C3=CC[C@]12C)C(C)C`, the inhibition entry in the assay listed under Sus scrofa [1], in the assay listed under Sus scrofa [4], with LLC-PK1 [6] and in the assay filed under Sus scrofa [7] was “Active” in each case. Also, the figures for the “inhibition (INH)” value in the assay on LLC-PK1 [2] and with LLC-PK1 [8] were “<=80%” and 4.3%, respectively. Moreover, in the assay on LLC-PK1 [3], the inhibition result was “Dose-dependent effect”. Further, in the assay on A2780 [5], the result was Active.

For the compound `CC(=O)O[C@H]1CC[C@]2(C)C3=CC[C@]4(C)[C@@H]([C@@H](CCC=C(C)C)C(=O)O)CC[C@@]4(C)C3=CC[C@H]2C1(C)C`, the inhibition result with LLC-PK1 [3] was “Dose-dependent effect”. The result with A2780 [9] was inactive.

Turning to `O=c1c(O)c(-c2ccc(O)c(O)c2)oc2cc(O)cc(O)c12`, in the assay on LLC-PK1 [10], the inhibition result was “Active”.
